The subject of the test is per2 promoter. Kind of test: Per2-luciferase activity in cultured mouse brain sections including SCN after NQ peptide treatment. It is filed as cell-based. The settings on record: for phase-advance effect on Per2 circadian activity: NQ peptide forms and mutants treated to incubated brain section including SCN (FIG. 15); for effects in the Per2 phase advance or delay: 100 nM for 4 hours; for phase changes / activity period of per2 promoter: treated at the highest point of per2 activity; for phase changes / activity period of per2 promoter / free-running period after treatment: 5 μM (FIG. 12); for free-running period after treatment: treated at the lowest point of per2 activity. As for the experimental part:
Animals used in this experiment were transgenic mice in which the construct inserted Luciferase gene behind per2 promoter was knocked-in. The mice were sacrificed. The brain was speedily isolated and sectioned in a thickness of 400 μm including SCN. The mouse brain tissue sections were incubated in media containing 1% penicillin/streptomycin antibiotics, 25% Horse Serum, 25% Hank's Buffered Salt Solution (HBSS), 50% Minimum Essential Medium (MEM) and 0.3 mM luciferin. At 5 days after the incubation, the synthetic NQ peptides were treated with 5 μM of final concentration. Then, luciferase activity derived from changes of per2 promoter activities was observed.
The NQ peptides were treated with 100 nM of the concentration at 2, 6, 10, 14, 20 and 22 hours after the peak in Per2 activity with the 24-hour intervals wave. The treatment was maintained 4 hours. Then, the media were changed.
The NQ peptides were treated with 2 nM, 20 nM, 200 nM and 2000 nM of the concentrations for 4 hours to the sections at 10 hours after the peak in Per2 activity. Then, the media were changed to the original media (50% minimum essential medium, 25% gey's balanced salt solution, 25% horse serum, 36 mM glucose, and 100 units/ml aerosolized antibiotics) containing 0.3 mM luciferin to limit drug duration of the NQ peptide.
To achieve this, the present inventors have synthesized mutants: deletion mutant sequencing from first Asn to tenth Leu among the amino acid sequences as set forth in SEQ ID NO:2; optical isomer mutant 1 in which the second Trp residue is modified to D-form Trp; and optical isomer mutant 2 in which the eleventh Lys residue is modified to D-form Lys.
The NQ peptide as set forth in SEQ ID NO:2 or 3, or the NQ peptide mutants were respectively treated to the incubated brain section including SCN. Particularly, the NQ peptide as set forth in SEQ ID NO:2 found in humans and mouse was simultaneously treated with the a-NQ-S antibody as neutralization substance to elucidate those specific effects with more accuracy. […] Therefore, it could be understood that the carboxyl-terminus sequencing from the eleventh Lys residue to Gln as well as the second Trp residue and the eleventh Lys residue in the amino acid sequence of NQ peptide as set forth in SEQ ID NO:2 are very important in physiological activity.

“Also recorded” adds a separate entry of the source.

For “NQ peptide as set forth in SEQ ID NO:3: form of the NQ peptide found in rat; His residue at the carboxyl-terminus instead of the amide group (NWTPQAMLYLKGAQGH; NQ Peptide 3)”, the “phase-advance effect on Per2 circadian activity” value is recorded as “caused the advance effects in circadian activity; also recorded: changed the Per2 phase; also recorded: showed phase-advance effects of Per2”.

Turning to NWTPQAMLYLKGAQ-NH2 [NQ peptide], the “phase changes / activity period of per2 promoter” value is “not changed” and the “free-running period after treatment” value is “approximately 22.3 hours”. Moreover, the “effects in the Per2 phase advance or delay” value (from here on “effects”) (treated at 2 hours after the peak in Per2 activity (FIG. 13)) is given as “negligible or barely shown”. For the setting “treated at 6 hours after the peak in Per2 activity (FIG. 13)”, the “effects” value was “negligible or barely shown”. In addition, the “effects” value (treated at 10 hours after the peak in Per2 activity (FIG. 13)) is listed as “significantly advanced”. In addition, the “effects” value (treated at 14 hours after the peak in Per2 activity (FIG. 13)) is on record as “significantly advanced”. Besides, under “treated at 20 hours after the peak in Per2 activity (FIG. 13)”, the “effects” value was “significantly advanced”. For the same substance, the “effects” value (treated at 22 hours after the peak in Per2 activity (FIG. 13)) is on record as “negligible or barely shown; also recorded: negligible”. For the same substance, the “highest effect time (after peak in Per2 activity)” value (100 nM, phase-dependent treatment (FIG. 13)) was determined as 10 h. Besides, the “dose dependence of Per2 phase-advance effect” value (2, 20, 200, 2000 nM for 4 hours at 10 hours after the peak (lowest point) in Per2 activity (FIG. 14)) is listed as “advanced proportionally to the concentration; also recorded: dose-dependent manner”. The “concentration range in which Per2 expression period was advanced proportionally” value (4 hours treatment at 10 hours after the peak in Per2 activity (FIG. 14)) was in the range of 20 to 200 nM. Besides, the “phase-advance effect on Per2 circadian activity” value (listed as NQ peptide as set forth in SEQ ID NO:2) is “caused the advance effects in circadian activity; also recorded: changed the Per2 phase; also recorded: showed phase-advance effects of Per2”. For the same substance, where the note is “synthetic NQ peptide treated at the lowest point in Per2 phase, mouse brain section (FIG. 12)”, the “free-running period advanced by” value is on record as “approximately 2.80 hours”. Besides, under “listed as synthetic NQ peptide”, the “phase changes / activity period of per2 promoter” value is on record as “negligible or barely shown” and the “free-running period after treatment” value is listed as “approximately 22.87 hours”. Also, the “highest concentration of the NQ peptide (phase-advance effect)” value (treated at the lowest point in Per2 phase (FIG. 14)) is 200 nM. In addition, under “treated at the point in which per2 shows the highest activity, 5 μM”, the “activity period of per2 promoter” value is “approximately 24 hours”.

Source of the values: patent US9556242B2, “Method for regulating circadian rhythms” (ANYGEN CO., LTD., priority 2011, dated 2017).
